Assay results published in publication PMC3551756, “HIV-1 Fusion Is Blocked through Binding of GB Virus C E2D Peptides to the HIV-1 gp41 Disulfide Loop” (PLoS ONE, 2013).

Tests used:
[1] = tested on: gp120/CCR5 interaction; type: binding, HIV-1; details: 293T cells expressing CCR5; sCD4 added; peptides 0.2 mM, E2_340-Fc 0.6 µM; 1 h 37°C; normalized to Hsp90
Procedure: Briefly, 293T cells were transiently transfected with either pCD4 or pCCR5 expression plasmids. Verification of expression was performed 2 days after transfection via flow cytometry. After 2 days of cultivation, the cells were resuspended in binding buffer (50 mM HEPES, 5 mM MgCl2, 1 mM CaCl2, 5% BSA, 0.1 mM NaN3, pH 7.5). […] After incubation for 1 h at 37°C, cells were washed with cold PBS and lysed in Triton X-100 and Tween-20 containing buffer. Lysates were separated by a 5% SDS-PAGE and verified with monoclonal gp120 antibody F425 B4a1 (NIH AIDS Research and Reference Reagent Program) or with sheep α-HIV-1-gp120 (Aalto Bio Reagents Ltd.) in Western Blot analyses. HIV-1 gp120 (5 ng) was used as a standard.
In a related approach, the effect of E2 peptides or intact E2 protein on the interaction between gp120 and the coreceptors CCR5 and CXCR4 expressed on cells was tested by immunoblotting. To ensure efficient binding of gp120 to the coreceptors, soluble CD4 (sCD4) was added simultaneously.
Soluble HIV-1 gp120 was added to the CD4-, CCR5-, or CXCR4-expressing cells and binding was investigated by separating the cell lysates on SDS-PAGE and visualized by performing Western Blot analyses.

[2] = tested on: HIV-1; details: ref [33]; cited from earlier work
[3] = tested on: CD4; experiment: CD4 surface expression, flow cytometry; type: cell-based, human; details: PBMC and TZM-bl cells; E2 peptides 25 µM, PMA 40 ng/ml; 6 hr; FACS; RTCN vs mock; average of two independent experiments each in triplicate
Procedure: (§1) PHA/IL-2-stimulated PBMC or TZM-bl cells were incubated with E2 peptides (25 µM), phorbol 12-myristate 13-acetate (PMA; 40 ng/ml), SDF-1α (1 µg/ml) or RANTES (50 nM) for 6 hr. CD4, CXCR4 and CCR5 surface expression was analyzed by using standard FACS staining protocols. Cells were washed with PBS and incubated for 30 min at 4°C with PE-labeled antibodies (CD4 clone SK3, CXCR4 clone 12G5, and CCR5 clone 2D7, BD Biosciences, Germany). Subsequently, washed cells were resuspended in PBS and analyzed with a FACSCalibur™ flow cytometer (BD Biosciences, Germany).
(§2) The non-HIV-1-inhibitory peptide P28 derived from the C-terminal part of E2 (residue 271 to 290), served as a negative control.
(§3) CD4, CXCR4 and CCR5 expression on PBMC (A) and TZM-bl cells (B) after preincubation with E2 peptides were determined by flow cytometry analysis. […] Percentages illustrate the ratio-to-cell-negative (RTCN) values that were calculated from the percentage of positive cells and the fluorescence intensity of peptide-incubated cells compared to mock-incubated cells. Columns show average values ±SD of two independent experiments each performed in triplicate. *: p<0.05; **: p<0.01 (mock- vs. inhibitor-incubated cells).

[4] = tested on: CXCR4; experiment: CXCR4 surface expression, flow cytometry; type: cell-based, human; details: PBMC and TZM-bl cells; E2 peptides 25 µM, SDF-1α 1 µg/ml; 6 hr; FACS; RTCN vs mock; average of two independent experiments each in triplicate
Procedure: as §1, §2, §3

[5] = tested on: CCR5; experiment: CCR5 surface expression, flow cytometry; type: cell-based, human; details: PBMC and TZM-bl cells; E2 peptides 25 µM, RANTES 50 nM; 6 hr; FACS; RTCN vs mock; average of two independent experiments each in triplicate
Procedure: as §1, §2, §3

[6] = tested on: HIV-1 Env (NL4-3 gp160, X4env) on 293T cells; experiment: HIV-1 gp160 (X4env) binding of FITC-labeled E2 peptides, flow cytometry; details: FITC-labeled peptides 1 µM, sCD4 pretreated, 1 h 37°C, X4env- vs vector-transfected 293T cells; three independent experiments each in duplicate
Procedure: 293T cells were transiently transfected with an HIV-1 Env expression vector, coding for the CXCR4-tropic NL4-3 gp160 precursor (X4env) for surface expression of gp120-gp41 Env trimers or empty plasmid as control. After 2 days of cultivation, cells were incubated with 1 µg sCD4 and 1 µM FITC-conjugated E2 peptides for 1 h at 37°C respectively. Subsequently, cells were washed, resuspended in PBS, and analyzed by flow cytometry using a BD™ LSR II flow cytometer (Becton Dickinson Biosciences, Germany). Flow cytometer data were collected with BD FACSDiva™ and analyzed with FCS Express V3. In parallel, gp160 expression was determined by staining with HIV-1 gp120 mAbs (2G12 and 17b) and an anti-human IgG-FITC pAb (Dako, Germany).
Previously, we have shown that the target of the HIV-1-inhibitory E2 peptides is most likely located on the HIV-1 particle, rather than on the cell. The surface of the HIV-1 particle consists of a lipid bilayer with incorporated host cell proteins and a limited number of functional envelope (Env) trimers (on average 14±7). Therefore, we tested whether the HIV-1-inhibitory E2 peptides interact with trimeric HIV-1 Env proteins expressed on the surface of transfected cells. For this purpose, 293T cells were transiently transfected with an HIV-1 Env expression vector, coding for the gp160 precursor of the CXCR4-tropic NL4-3 envelope (X4env). Binding of FITC-labeled E2 peptides was monitored by flow cytometry.
Figure 4 Recombinant E2_340-Fc protein and E2-derived peptides bind HIV-1 gp41. (A) 293T cells expressing NL4-3 envelope (X4env) or empty plasmid as control were incubated with sCD4 and FITC-conjugated E2 peptides, respectively. Peptide binding was analyzed by flow cytometry. Percentages illustrate the increase of cell binding to X4env-transfected cells. The increase is normalized to the background binding of E2 peptides to mock-transfected cells by calculating the RTCN value. […] (C) E2 peptides with increasing amounts were added to recombinant E2_340-Fc protein (at constant concentration) and then transferred to immobilized recombinant gp41MN.

[7] = biological target: E2_340-Fc / HIV-1 gp41MN interaction (Human immunodeficiency virus type 1 group M subtype B, UniProt P05877); type: binding; details: ELISA, immobilized gp41MN, E2_340-Fc constant (5 µg/ml), increasing peptide; three independent experiments each in duplicate
Procedure: Flat-bottom, 96-well Microtest ELISA plates (Sarstedt, Germany) were coated overnight at 4°C with recombinant HIV-1 gp120 (0.5 µg/ml), gp41 (0.22 µg/ml) proteins, or with streptavidin (4 µg/ml) in coating buffer (0.1 M NaHCO3, 0.1 M Na2CO3, pH 9.87). Nonspecific binding was blocked (blocking buffer: 1% BSA, 0.1% Tween-20 in phosphate buffer, pH 7.2) for 1 h at room temperature, followed by washing steps (wash buffer: 0.1% Tween in phosphate buffer, pH 7.2). […] All plates were then incubated with recombinant E2_340-Fc or Fc protein in serial dilutions in sample buffer (phosphate buffer, pH 7.2) for 3 hr at room temperature. To perform the competitive ELISAs, the recombinant E2_340-Fc protein was adjusted at 5 µg/ml and the monoclonal gp41 antibodies (246-D, F240, T32, D50, 2F5, 4E10, Chessie 8 [all: NIH AIDS Research and Reference Reagent Program], and 5F3 [Polymun, Austria]) at 100 µM. After washing procedure, the plates were incubated for 1 h with polyclonal rabbit anti-human IgG peroxidase antibody (Dako, Germany) 1∶6000 in sample buffer and washed. Plates were developed with TMB peroxidase substrate solution (KPL, USA), or with OPD/H2O2 solution in the dark. Absorbances (ODs) were read at 450 or 492 nm, respectively, using a multi-channel photometer (ELISA-Reader AxSYM, Abbott Laboratory, USA).
Competitive binding of E2 and gp120 peptides (N35, N35s) with recombinant E2_340-Fc protein to immobilized recombinant gp41MN. Simultaneously to E2_340-Fc incubation peptides of E2 or gp120 were added with increasing amounts.

[8] = biological target: recombinant HIV-1 gp41MN (truncated gp41 ectodomain) (HIV-1 (strain MN)); experiment: ELISA; competitive: gp41MN immobilised; E2_(340)-Fc at constant 5 µg/ml with increasing amounts of peptide; bound E2_(340)-Fc detected with anti-human IgG peroxidase antibody
[9] = tested on: HIV-1 NL4-3 / TZM-bl cells; experiment: HIV-1 virion-based (BlaM-Vpr) virus-cell fusion assay; details: standard (pre-CD4 binding) and TAS (post-CD4 binding, 23°C 1 h then 37°C 2 hr); E2 peptides 20 µM, AMD-3100 10 µM, 2F5 0.5 µg/ml, b12 and B4 0.3 µg/ml; five independent experiments each in triplicate
Procedure: HIV-1 virions containing the BlaM-Vpr chimera were produced as previously described [33]. Briefly, 293T cells were co-transfected with pNL4-3 proviral DNA, pCMV-BlaM-Vpr, and pAdVAntage vectors. After 2 days of cultivation, the virus-containing supernatant was centrifuged for 10 min at 300×g to remove cellular debris. The HIV-1 virion-containing supernatant was overlaid onto a 20% sucrose cushion and ultracentrifuged at 35000×g at 4°C for 90 min. The resulting pellet was resuspended in medium and aliquots were frozen at −80°C until usage.
The virion-based fusion assay was performed essentially as described elsewhere [41]. Briefly, 5×10^4 TZM-bl cells were infected with sucrose-purified HIV-1 NL4-3 virions containing BlaM-Vpr (5 ng p24-Gag per approach). Under temperature-arrested state (TAS) conditions, binding of the HI virions to target cells was allowed at low temperature via spinning inoculation, for which virions were added to cells and centrifuged at 2095×g, 4°C for 30 min. […] BlaM activity was quantified using a fluorescence plate reader. The extent of virus-cell fusion was determined from the ratio of blue (460 nm) and green (510 nm) emission upon exciting the cells at 405 nm.
To find out whether early or late steps of HIV-1 entry are affected by the E2 peptides, the E2 peptide activity was determined before and after gp120/CD4 engagement using the Vpr-β-lactamase (Vpr-BlaM) enzyme-based virus-cell fusion assay under standard (pre-CD4 binding) and temperature-arrested state (TAS; post-CD4 binding) conditions, respectively.
The HIV-inhibitory activity of known HIV-1 entry inhibitors or respective E2 peptides was determined using a virus-cell fusion assay under standard (respective inhibitors were added simultaneously to HIV NL4-3BlaM-Vpr inoculum: pre-CD4 binding) or under TAS (temperature-arrested state) conditions (respective inhibitors were added at low temperature of 23°C for 1 h after spin-inoculation [4°C] and removal of unbound HIV-1 particles: post-CD4 binding). […] Percentages were calculated in relation to mock-treated cells. […]

**Q.** For Maraviroc, which “interference with gp120 binding to CCR5” value [1] is on record?
**A.** clear reduction in the gp120/CCR5

**Q.** With Ac-TEVSEALGGAGLTGGFYEPL [P28] as the molecule, how does the “HIV-inhibitory activity (earlier work)” value [2] read?
**A.** non-HIV-1-inhibitory

**Q.** And the CD4 surface presentation [3]?
**A.** no relevant effect on HIV-1 receptor presentation

**Q.** What about the CXCR4 surface presentation [4] of the same molecule?
**A.** no relevant effect on HIV-1 receptor presentation

**Q.** What about the CCR5 surface presentation [5] of the same molecule?
**A.** no relevant effect on HIV-1 receptor presentation

**Q.** And the “binding to HIV-1 Env-expressing cells” value [6]?
**A.** the increase of binding was not observed

**Q.** What about the “competition with E2_340-Fc for gp41 binding” value [7] of the same molecule?
**A.** no effect

**Q.** For `Cc1ccc(-c2ccc3c(c2)C=C(C(=O)Nc2ccc(C[N+](C)(C)C4CCOCC4)cc2)CCC3)cc1.[Cl-]` [TAK-779], which “interference with gp120 binding to CCR5” value [1] is on record?
**A.** clear reduction in the gp120/CCR5

**Q.** For “N35, HIV-1 gp120 N-terminus peptide (gp120 residue 31 to 65) (from UniProt P04578 31-65)”, which IC50 [8] is on record?
**A.** 0.7 µM

**Q.** For `c1cc(CN2CCCNCCNCCCNCC2)ccc1CN1CCCNCCNCCCNCC1` [AMD-3100, reference compound], which “inhibition of virus-cell fusion, standard versus TAS conditions” value [9] is on record?
**A.** act after CD4 engagement

**Q.** With `CCCCCCCCCCCCCC(=O)O[C@@H]1[C@@H](C)[C@@]2(O)[C@@H](C=C(CO)C[C@]3(O)C(=O)C(C)=C[C@@H]23)[C@@H]2C(C)(C)[C@]12OC(C)=O` [PMA, phorbol 12-myristate 13-acetate, reference compound] as the molecule, how does the CD4 surface presentation [3] read?
**A.** down-regulation of CD4

**Q.** For SDF-1α [reference compound], which CXCR4 surface presentation [4] is on record?
**A.** down-regulation of the respective coreceptors

**Q.** Which IC50 [8] does the source give for “GBV-C E2 peptide P6-2 (amino acids 45 to 64)” here?
**A.** 7 µM

**Q.** Which IC50 [8] does the source give for “N35s, C54S variant of the HIV-1 gp120 N-terminus peptide N35 (from UniProt P04578 31-65)” here?
**A.** 4.6 µM

B1: RANTES: CCR5-ligand (protein, UniProt P13501 24-91, looked up)
C-C motif chemokine 5: SPYSSDTTPCCFAYIARPLPRAHIKEYFYTSGKCSNPAVVFVTRKNRQVCANPEKKWVREYINSLEMS
**Q.** For B1, which CCR5 surface presentation [5] is on record?
**A.** down-regulation of the respective coreceptors
